Reference: patent publication US20150152441A1, “METHODS AND SYSTEMS FOR IMPROVING FERMENTATION EFFICIENCY” (LanzaTech New Zealand Limited, priority 2013, published 2015)

Tests used:
[1] = cited from earlier work
[2] = test system: Clostridium autoethanogenum culture; assay: Determination of effect of BTEX on fermentation (continuous CO gas fermentation; impact seen as rising pH and/or effect on CO and H2 uptake); assay type: cell-based; conditions: for Liquid tolerance level / Liquid impact level (ppm): level in fermentation broth, compound added individually; for Liquid tolerance level: addition lowered until no effect was observed; for Liquid impact level (ppm): impact = rising pH and/or effect on CO and H2 uptake
Experimental: Media was prepared according to the composition described in Tables 1-3 to a volume of 1.5 L and 1.5 ml of resazurin added. The solution was heated and agitated whilst degassed with N2. A Na2S drip was started at a rate of 0.5 ml/hr and temperature of the bioreactor set to 37° C. The pH was adjusted to 5.0 with NH4OH and chromium was added to adjust the ORP to −200 mV. The bioreactor was then supplied with RMG (43% CO, 20% CO2, 2.5% H2 and 33% N2) at a flow rate of 50 ml/min. The solution was inoculated with 150 ml of an actively growing Clostridium autoethanogenum culture. The fermentation was operated continuously for a period of 41 days at dilution rate 1.5. At day 26.8, Toluene was added to the gas phase. To achieve this, the inflow gas was sparged through a toluene solution, which allowed toluene to accumulate in the reactor. Toluene was allowed to accumulate for 17 hours. The fermentation was allowed to recover and the experiment was repeated on day 27.8.
The reactor was allowed to recover. On day 35 Benzene was added to the gas phase. To achieve this, the inflow gas was sparged through a benzene solution, which allowed benzene to accumulate in the reactor. […] Benzene was allowed to accumulate to higher concentrations.
The effect of the addition of xylene and ethylbenzene were also performed using the same techniques. Based on vapour pressure the compounds would evaporate at a certain rate into gaseous phase.
The effect of the introduction of the various BTEX compounds on bacterial culture performance was determined by measurement of the following: culture density, metabolite concentration (ethanol, acetate, etc), oxidation-reduction potential, pH, carbon monoxide and hydrogen consumption. The compound accumulation in the gas and culture liquid phase was determined by GC-MS measurements.
Liquid tolerance levels were determined by lowering the addition until no effect was observed.

Compound | mm Hg vapor pressure (25° C.) [1] [mm Hg] | effect of addition to the reactor on the fermentation [2] | Liquid tolerance level [2] [ppm] | Liquid impact level (ppm) [2] [ppm] | level in broth at which the compound began to effect the fermentation ([2]; FIG. 5-7) [ppm] | accumulation resulting in an increase in pH and decrease in CO uptake ([2]; FIG. 6, 7) | accumulation level with no observable effect on the fermentation ([2]; benzene added to gas phase on day 35) [ppm] | level in fermentation broth at which CO uptake decreased, with rising pH trend ([2]; after 3.5 hours exposure, FIG. 2-4) | level in broth below which CO uptake and pH returned to pre-addition levels (fermentation recovers) ([2]; after toluene addition was stopped) | effect on carbon monoxide utilisation of the microorganism ([2]; excess levels in fermentation solution)
CCc1ccccc1 [Ethyl Benzene] | 7 | same effect was also seen | <10 | >20 |  |  |  |  |  | 
c1ccccc1 [Benzene] | 76 |  | <40 | >40 | ≥ 50 | greater than 50 ppm | ≤ 40 |  |  | 
Xylenes |  | same effect was also seen | <10 | >100 |  |  |  |  |  | 
Cc1ccccc1 [Toluene] | 22 |  | <25 | >50 |  |  |  | greater than 100 ppm | below 100 ppm | clear negative effect
c1ccc2ccccc2c1 [naphthalene] |  | does not have a negative effect on the fermentation |  |  |  |  |  |  |  | 
